The values that follow come from patent US8829026B2, “Sulfamoyl benzoic acid heterobicyclic derivatives as TRPM8 antagonists” (RaQualia Pharma Inc., priority 2010, dated 2014).

The target in the assay is T1, human TRPM8 (Homo sapiens, UniProt Q7Z2W7).
T1 construct: expressed in transfected cells
T1 sequence (Q7Z2W7 whole entry): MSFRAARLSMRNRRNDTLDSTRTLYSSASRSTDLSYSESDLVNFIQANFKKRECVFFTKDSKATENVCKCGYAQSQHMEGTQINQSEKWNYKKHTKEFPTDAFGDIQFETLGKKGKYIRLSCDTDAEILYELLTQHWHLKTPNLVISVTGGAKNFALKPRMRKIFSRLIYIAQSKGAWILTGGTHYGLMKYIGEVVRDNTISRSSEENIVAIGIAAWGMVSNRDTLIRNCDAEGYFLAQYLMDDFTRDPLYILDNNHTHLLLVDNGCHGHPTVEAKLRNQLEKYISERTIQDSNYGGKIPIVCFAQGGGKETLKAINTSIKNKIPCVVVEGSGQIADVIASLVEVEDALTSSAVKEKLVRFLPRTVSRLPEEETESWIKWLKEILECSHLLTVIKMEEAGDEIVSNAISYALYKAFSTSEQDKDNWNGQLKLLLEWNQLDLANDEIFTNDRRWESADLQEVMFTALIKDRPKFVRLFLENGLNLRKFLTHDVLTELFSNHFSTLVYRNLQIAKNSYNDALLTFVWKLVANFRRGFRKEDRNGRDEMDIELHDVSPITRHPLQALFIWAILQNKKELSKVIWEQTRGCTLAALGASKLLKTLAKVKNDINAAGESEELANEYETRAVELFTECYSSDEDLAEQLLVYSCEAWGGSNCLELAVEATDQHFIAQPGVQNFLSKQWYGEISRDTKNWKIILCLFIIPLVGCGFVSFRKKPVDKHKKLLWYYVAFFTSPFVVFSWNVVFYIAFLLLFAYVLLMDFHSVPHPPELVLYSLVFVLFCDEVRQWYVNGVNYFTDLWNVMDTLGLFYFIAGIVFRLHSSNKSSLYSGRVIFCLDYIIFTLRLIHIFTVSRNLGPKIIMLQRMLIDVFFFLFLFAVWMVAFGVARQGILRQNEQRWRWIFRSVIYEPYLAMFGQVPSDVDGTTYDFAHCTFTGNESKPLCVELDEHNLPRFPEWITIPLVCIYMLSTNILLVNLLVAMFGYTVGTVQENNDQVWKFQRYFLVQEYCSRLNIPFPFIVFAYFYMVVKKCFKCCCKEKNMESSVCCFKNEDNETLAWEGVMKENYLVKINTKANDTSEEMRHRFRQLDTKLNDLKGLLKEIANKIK
In words: Menthol-induced Ca2+ influx in HEK293 cells stably expressing human TRPM8. In kind it is cell-based. The conditions noted are these: 30 microM menthol-induced Ca2+ influx, HEK293 cells stably expressing human TRPM8, 11-point dose-response. The procedure:
Measurement of the Menthol-Induced Ca^2+ Influx in HEK293 Cells Stably Expressing Human TRPM8
A cell-based Ca^2+ influx assay using HEK293 cells stably expressing human TRPM8 was used to identify the activity of compounds.
HEK293 cells stably expressing human TRPM8 were grown in T175 flasks at 37° C. in a 5% CO2 humidified incubator to about 80% confluence. Media composition consisted of Dulbecco's Modified Eagle Medium (high glucose), 10% fetal calf serum (FCS), 100 units/ml Penicillin, 100 microg/ml Streptomycin and 600 microg/ml Geneticine. At 24 hours prior to assay, cells were seeded in poly-D-lysine coated 384-well plates (BD FALCON) at a density of 30,000 cells per well in culture medium and grown overnight in 5% CO2 at 37° C. On the assay day, growth media was removed and cells were loaded with 0.5 microM Fluo4-AM (Molecular Probes) and 0.005% Pluronic F-127 dissolved in assay buffer (Hank's balanced salt solution (HBSS), 19.4 mM HEPES pH7.4, 2.5 mM Probenecid) for 1 hour at room temperature. After washing with assay buffer, the cells were preincubated with various concentrations of the compounds for 5 min. The changes in intracellular calcium concentration by addition of 30 microM menthol were monitored by the cell imaging technology by Hamamatsu Photonics's Functional Drug Screening System (FDSS).
The IC50 values for compounds of the present invention were determined from 11-point dose-response studies. Curves were generated using the average of duplicate wells for each data point. Finally, the IC50 values are calculated with the best-fit dose curve determined by XLfit (ID Business Solutions Ltd.).
A word on the IC50: it is the point on the concentration scale where inhibition reaches its midpoint. With `Cn1ncc2cc(CN(c3ncc(C(F)(F)F)cc3Cl)S(=O)(=O)c3ccc(C(=O)O)cc3)ccc21` [Example 3, 4-(N-(3-Chloro-5-(trifluoromethyl)pyridin-2-yl)-N-((1-methyl-1H-indazol-5-yl)methyl)sulfamoyl)benzoic acid], the IC50 is less than 1000 nM.

With `CCc1cc(C(=O)O)ccc1S(=O)(=O)N(Cc1ccc2c(cnn2C)c1)c1ncc(C(F)(F)F)cc1Cl` [Example 4, 4-(N-(3-Chloro-5-(trifluoromethyl)pyridin-2-yl)-N-((1-methyl-1H-indazol-5-yl)methyl)sulfamoyl)-3-ethylbenzoic acid], the IC50 was less than 1000 nM. For the molecule `O=C(O)c1ccc(S(=O)(=O)N(Cc2ccc3occc3c2)c2ncc(Cl)cc2Cl)cc1` [Example 5, 4-(N-(Benzofuran-5-ylmethyl)-N-(3,5-dichloropyridin-2-yl)sulfamoyl)benzoic acid], the IC50 was less than 1000 nM. In the case of `Cn1ccc2cc(CN(c3ncc(C(F)(F)F)cc3Cl)S(=O)(=O)c3ccc(C(=O)O)cc3)ccc21` [Example 6, 4-(N-(3-Chloro-5-(trifluoromethyl)pyridin-2-yl)-N-((1-methyl-1H-indol-5-yl)methyl)sulfamoyl)benzoic acid], the IC50 is less than 1000 nM.

For `Cn1ccc2cc(CN(c3ncc(Cl)cc3Cl)S(=O)(=O)c3ccc(C(=O)O)cc3)ccc21` [Example 7, 4-(N-(3,5-Dichloropyridin-2-yl)-N-((1-methyl-1H-indol-5-yl)methyl)sulfamoyl)benzoic acid], the IC50 was less than 1000 nM.

In the case of `Cn1ccc2cc(CN(c3ncc(C(F)(F)F)cc3Cl)S(=O)(=O)c3ccc(C(=O)O)cc3Cl)ccc21` [Example 8, 3-Chloro-4-(N-(3-chloro-5-(trifluoromethyl)pyridin-2-yl)-N-((1-methyl-1H-indol-5-yl)methyl)sulfamoyl)benzoic acid], the IC50 is less than 1000 nM. As to `Cn1ccc2cc(CN(c3ncc(Cl)cc3Cl)S(=O)(=O)c3ccc(C(=O)O)cc3Cl)ccc21` [Example 9, 3-Chloro-4-(N-(3,5-dichloropyridin-2-yl)-N-((1-methyl-1H-indol-5-yl)methyl)sulfamoyl)benzoic acid], the IC50 was less than 1000 nM. `O=C(O)c1ccc(S(=O)(=O)N(Cc2ccc3ccoc3c2)c2ncc(Cl)cc2Cl)cc1` [Example 10, 4-(N-(Benzofuran-6-ylmethyl)-N-(3,5-dichloropyridin-2-yl)sulfamoyl)benzoic acid] showed an IC50 of less than 1000 nM.

Molecule `Cc1cc(C(=O)O)ccc1S(=O)(=O)N(Cc1ccc2c(ccn2C)c1)c1ncc(C(F)(F)F)cc1Cl` [Example 11, 4-(N-(3-Chloro-5-(trifluoromethyl)pyridin-2-yl)-N-((1-methyl-1H-indol-5-yl)methyl)sulfamoyl)-3-methylbenzoic acid] had an IC50 of less than 1000 nM. Then `Cc1cc(C(=O)O)ccc1S(=O)(=O)N(Cc1ccc2c(ccn2C)c1)c1ncc(Cl)cc1Cl` [Example 12, 4-(N-(3,5-Dichloropyridin-2-yl)-N-((1-methyl-1H-indol-5-yl)methyl)sulfamoyl)-3-methylbenzoic acid], with less than 1000 nM; and `CCn1cc2cc(CN(c3ncc(C(F)(F)F)cc3Cl)S(=O)(=O)c3ccc(C(=O)O)cc3)ccc2n1` [Example 13, 4-(N-(3-Chloro-5-(trifluoromethyl)pyridin-2-yl)-N-((2-ethyl-2H-indazol-5-yl)methyl)sulfamoyl)benzoic acid], with less than 1000 nM; and `CCn1ncc2cc(CN(c3ncc(C(F)(F)F)cc3Cl)S(=O)(=O)c3ccc(C(=O)O)cc3Cl)ccc21` [Example 14, 3-Chloro-4-(N-(3-chloro-5-(trifluoromethyl)pyridin-2-yl)-N-((1-ethyl-1H-indazol-5-yl)methyl)sulfamoyl)benzoic acid], with less than 1000 nM.

As to `Cn1cc2cc(CN(c3ncc(C(F)(F)F)cc3Cl)S(=O)(=O)c3ccc(C(=O)O)cc3)ccc2n1` [Example 16, 4-(N-(3-Chloro-5-(trifluoromethyl)pyridin-2-yl)-N-((2-methyl-2H-indazol-5-yl)methyl)sulfamoyl)benzoic acid], the IC50 was 1000 to 10000 nM.

Turning to `Cn1ncc2ccc(CN(c3ncc(C(F)(F)F)cc3Cl)S(=O)(=O)c3ccc(C(=O)O)cc3)cc21` [Example 17, 4-(N-(3-Chloro-5-(trifluoromethyl)pyridin-2-yl)-N-((1-methyl-1H-indazol-6-yl)methyl)sulfamoyl)benzoic acid], the IC50 is less than 1000 nM. As to `Cn1cc2ccc(CN(c3ncc(C(F)(F)F)cc3Cl)S(=O)(=O)c3ccc(C(=O)O)cc3)cc2n1` [Example 18, 4-(N-(3-Chloro-5-(trifluoromethyl)pyridin-2-yl)-N-((2-methyl-2H-indazol-6-yl)methyl)sulfamoyl)benzoic acid], the IC50 lay in the range of 1000 to 10000 nM. With `CCn1ncc2cc(CN(c3ncc(Cl)cc3Cl)S(=O)(=O)c3ccc(C(=O)O)cc3)ccc21` [Example 19, 4-(N-(3,5-Dichloropyridin-2-yl)-N-((1-ethyl-1H-indazol-5-yl)methyl)sulfamoyl)benzoic acid], the IC50 was less than 1000 nM. As for `COCCn1ncc2cc(CN(c3ncc(C(F)(F)F)cc3Cl)S(=O)(=O)c3ccc(C(=O)O)cc3)ccc21` [Example 20, 4-(N-(3-Chloro-5-(trifluoromethyl)pyridin-2-yl)-N-((1-(2-methoxyethyl)-1H-indazol-5-yl)methyl)sulfamoyl)benzoic acid], the IC50 is less than 1000 nM.

Regarding `O=C(O)c1ccc(S(=O)(=O)N(Cc2ccc3c(cnn3C3CCOCC3)c2)c2ncc(C(F)(F)F)cc2Cl)cc1` [Example 21, 4-(N-(3-Chloro-5-(trifluoromethyl)pyridin-2-yl)-N-((1-(tetrahydro-2H-pyran-4-yl)-1H-indazol-5-yl)methyl)sulfamoyl)benzoic acid], the IC50 was less than 1000 nM.

In turn, `CC(C)(O)Cn1ncc2cc(CN(c3ncc(C(F)(F)F)cc3Cl)S(=O)(=O)c3ccc(C(=O)O)cc3)ccc21` [Example 22, 4-(N-(3-Chloro-5-(trifluoromethyl)pyridin-2-yl)-N-((1-(2-hydroxy-2-methylpropyl)-1H-indazol-5-yl)methyl)sulfamoyl)benzoic acid] displayed an IC50 of 1000 to 10000 nM. Take `CCc1cc(C(=O)O)ccc1S(=O)(=O)N(Cc1ccc2c(cnn2C)c1)c1ncc(Cl)cc1Cl` [Example 23, 4-(N-(3,5-Dichloropyridin-2-yl)-N-((1-methyl-1H-indazol-5-yl)methyl)sulfamoyl)-3-ethylbenzoic acid]: the IC50 is less than 1000 nM.

`Cn1ncc2cc(CN(c3ncc(Cl)cc3Cl)S(=O)(=O)c3ccc(C(=O)O)cc3Cl)ccc21` [Example 24, 3-Chloro-4-(N-(3,5-dichloropyridin-2-yl)-N-((1-methyl-1H-indazol-5-yl)methyl)sulfamoyl)benzoic acid] had an IC50 of less than 1000 nM.

In turn, `Cn1ncc2cc(CN(c3ncc(C(F)(F)F)cc3Cl)S(=O)(=O)c3ccc(C(=O)O)cc3Cl)ccc21` [Example 25, 3-Chloro-4-(N-(3-chloro-5-(trifluoromethyl)pyridin-2-yl)-N-((1-methyl-1H-indazol-5-yl)methyl)sulfamoyl)benzoic acid] yielded an IC50 of less than 1000 nM.

`Cc1cc(C(=O)O)ccc1S(=O)(=O)N(Cc1ccc2c(cnn2C)c1)c1ncc(C(F)(F)F)cc1Cl` [Example 26, 4-(N-(3-Chloro-5-(trifluoromethyl)pyridin-2-yl)-N-((1-methyl-1H-indazol-5-yl)methyl)sulfamoyl)-3-methylbenzoic acid] had an IC50 of less than 1000 nM. In the case of `Cc1cc(C(=O)O)ccc1S(=O)(=O)N(Cc1ccc2c(cnn2C)c1)c1ncc(Cl)cc1Cl` [Example 27, 4-(N-(3,5-Dichloropyridin-2-yl)-N-((1-methyl-1H-indazol-5-yl)methyl)sulfamoyl)-3-methylbenzoic acid], the IC50 was less than 1000 nM. To `O=C(O)c1ccc(S(=O)(=O)N(Cc2ccc3c(cnn3C3CC3)c2)c2ncc(C(F)(F)F)cc2Cl)cc1` [Example 28, 4-(N-(3-Chloro-5-(trifluoromethyl)pyridin-2-yl)-N-((1-cyclopropyl-1H-indazol-5-yl)methyl)sulfamoyl)benzoic acid] belongs less than 1000 nM; to `O=C(O)c1ccc(S(=O)(=O)N(Cc2ccc3c(cnn3C3CC3)c2)c2ncc(Cl)cc2Cl)cc1` [Example 29, 4-(N-((1-Cyclopropyl-1H-indazol-5-yl)methyl)-N-(3,5-dichloropyridin-2-yl)sulfamoyl)benzoic acid], less than 1000 nM. `Cn1nnc2cc(CN(c3ncc(C(F)(F)F)cc3Cl)S(=O)(=O)c3ccc(C(=O)O)cc3)ccc21` [Example 30, 4-(N-(3-Chloro-5-(trifluoromethyl)pyridin-2-yl)-N-((1-methyl-1H-benzo[d][1,2,3]triazol-5-yl)methyl)sulfamoyl)benzoic acid] registered an IC50 of 1000 to 10000 nM.

The molecule `O=C(O)c1ccc(S(=O)(=O)N(Cc2ccc3c(cnn3C3CC3)c2)c2ncc(C(F)(F)F)cc2Cl)c(Cl)c1` [Example 31, 3-Chloro-4-(N-(3-chloro-5-(trifluoromethyl)pyridin-2-yl)-N-((1-cyclopropyl-1H-indazol-5-yl)methyl)sulfamoyl)benzoic acid] came in with an IC50 of less than 1000 nM.
